According to article PMC11237774, “On-target, dual aminopeptidase inhibition provides cross-species antimalarial activity” (mBio, 2024):
In brackets after ≈: the same amount, converted by molar mass. Like-named read-outs stand apart in the source and are kept apart here.

How the values were obtained:
[1] = Kinetic solubility by nephelometry; assay type: physicochemical
Method: Preliminary studies were conducted to assess the in vitro absorption, distribution, metabolism, and excretion (ADME) properties and in vivo mouse exposure of MMV1557817 following single oral dosing. Kinetic solubility was conducted using nephelometry based on a modification of a previously published method ([45]). Briefly, compound was dissolved in DMSO and spiked into either pH 6.5 phosphate buffer (to reflect the pH of the fasted state upper small intestine) or 0.01 M HCl (to reflect gastric pH 1.5–2) with a final DMSO concentration of 1% (vol/vol) and final concentrations ranging from 1 to 100 µg/mL. Samples were analyzed by nephelometry to determine the concentration above which precipitation occurred.

[2] = test system: human M1 aminopeptidase insulin-regulated aminopeptidase (IRAP); design: method as in PMID 30537832; details: tested up to 200 µM; cited from earlier work
P. berghei ANKA = assay: P. berghei rodent malaria 4-day Peters' suppressive test; assay type: in vivo, P. berghei (Balb/c mice); details: 50 mg/kg oral on days 0, 1, 2, 3 post-infection, read on day 4
Method: Female Balb/c mice at 6 weeks of age in groups of 4-5 were infected intraperitoneally with 2 × 10^7 P. berghei ANKA-infected erythrocytes. […] Parasitemia was assessed by visualizing Giemsa-stained thin blood smears by microscopy and a minimum of 1,000 RBCs was counted. […] University Animal Ethics Committee.

MMP2, 7, 8, 9, and 13 = test system: MMP2, 7, 8, 9, and 13; design: method as in PMID 30537832; details: tested up to 200 µM; cited from earlier work
[3] = Plasma protein binding by ultracentrifugation; assay type: in vitro ADME; details: plasma (10% plasma diluted with PBS), pH 7.4
Method: (§1) Human plasma was obtained from the Volunteer Blood Donor Registry (Walter & Eliza Hall Institute, Melbourne, Australia), rat plasma was from male Sprague-Dawley rats (Animal Resource Centre, Perth, Western Australia) and mouse plasma was procured as described above. RPMI-1640 media supplemented with 25 mM HEPES, 2 g/L sodium bicarbonate, and 100 mg/L neomycin were additionally supplemented with 5 […] on the day prior to binding assessment. […] Additional aliquots of spiked matrix were maintained at 37°C for 4.2 h but not centrifuged to serve as controls for stability assessment and to obtain a measure of the total concentration in each matrix. Following centrifugation, aliquots of the protein-free supernatant and the non-centrifuged matrix controls were “matrix matched” by addition of an equal volume of the opposite medium (i.e., either blank buffer or blank matrix) and assayed as described above with comparison to calibration standards prepared in 50% matrix/50% PBS.

[4] = Plasma protein binding by ultracentrifugation; assay type: in vitro ADME, human; details: plasma (10% plasma diluted with PBS), pH 7.4
Method: as §1

Pb-M17 = Pb-M17 (Plasmodium berghei, UniProt A0A509APA2); assay: Recombinant aminopeptidase fluorescence assay (H-Leu-NHMec); assay type: biochemical; details: Pb M17, Morrison equation; read-out: Ki^(app) ± SEM
Method: Inhibition of aminopeptidase activity assays were performed against nine aminopeptidases: the M1 alanyl and M17 leucyl aminopeptidases from P. falciparum (PfA-M1; PfA-M17), P. vivax (Pv-M1; Pv-M17), and P. berghei (Pb-M1; Pb-M17), and three human M1 homologs: LTA4H (OriGene TP307617), ERAP1 (OriGene TP314469), and ERAP2 (Creative BioMart ERAP2-304H). The Plasmodium enzymes were produced recombinantly as described previously ([16], [17]), and the human recombinant enzymes were purchased from commercial suppliers as indicated.
The concentration of H-Leu-NHMec in the assay was held constant for each enzyme and ranged from 10 to 100 µM, depending on the enzyme. Reactions were measured at 37°C in white 384-well plates in a total volume of 25 or 50 µL using a spectrofluorimeter (BMG FLUOstar) with excitation at 355 nm and emission at 460 nm. The fluorescence signal was continuously monitored until a final steady-state velocity, v, was obtained. Inhibition constants were calculated from biological triplicates made from three different protein preparations.
Substrate concentrations were selected to allow sensitive detection of enzyme activity while not exceeding the Km for each enzyme. A compound concentration range was selected to obtain a complete inhibition curve (0%–100 %) in biological triplicate. Where possible, the Ki values were calculated by plotting the initial rates versus inhibitor concentration and fitting to the Morrison equation for tight-binding inhibitors in GraphPad Prism (V.8.4.1; non-linear regression method).

[5] = test system: P. falciparum Dd2 parasites; assay: Fractional inhibitory concentration, artemisinin and MMV1557817 interaction; assay type: cell-based
Method: Fractional inhibitory concentrations (FIC) were determined as previously described ([44]). […] The FIC for each drug was determined by EC50 of drug in a mixture/EC50 of drug alone, and the sum of FIC was determined by the addition of the two individual FIC values. Synergistic FIC is described as <1, additive = 1 < 2, and antagonism > 2 ([44]).

[6] = In vivo exposure after single oral dosing; details: male, Swiss outbred, mouse, plasma, 50 mg/kg
Method: This produced a uniform off-white milky suspension of pH 6.0. […] Samples were collected by either submandibular bleed (~120 µL) or terminal cardiac puncture (under inhaled isoflurane anesthesia). Blood samples were centrifuged immediately, and supernatant plasma was removed and stored at −80°C until analysis as described above.

Cam3.1 (MRA1240) = assay: microbe, parasite or virus in culture; assay type: cell-based, P. falciparum; details: Plasmodium falciparum, read-out: EC50 nM (mean)
Method: (§2) In vitro testing was performed using the modified [^3H]hypoxanthine incorporation assay, as previously reported ([34]). The specific mutations in the field isolates (see Table 1, top six strains) have been previously described ([35], [36]), as have the specific mutations in the laboratory-selected Dd2 parasites (see Table 1, remaining five strains) ([36]).

TM90C2B = assay: microbe, parasite or virus in culture; assay type: cell-based, P. falciparum; details: Plasmodium falciparum, read-out: EC50 nM (mean)
Method: as §2

Dd2 = assay: microbe, parasite or virus in culture; assay type: cell-based, P. falciparum; details: Plasmodium falciparum, DD2, read-out: EC50 nM (mean)
Method: as §2

NF54 = assay: microbe, parasite or virus in culture; assay type: cell-based, P. falciparum; details: Plasmodium falciparum
Method: as §2

7G8 = assay: microbe, parasite or virus in culture; assay type: cell-based, P. falciparum; details: Plasmodium falciparum, read-out: EC50 nM (mean)
Method: as §2

K1 = assay: microbe, parasite or virus in culture; assay type: cell-based, P. falciparum; details: Plasmodium falciparum, read-out: EC50 nM (mean)
Method: as §2

Pb-M17, sequence (A0A509APA2 entry or part of it): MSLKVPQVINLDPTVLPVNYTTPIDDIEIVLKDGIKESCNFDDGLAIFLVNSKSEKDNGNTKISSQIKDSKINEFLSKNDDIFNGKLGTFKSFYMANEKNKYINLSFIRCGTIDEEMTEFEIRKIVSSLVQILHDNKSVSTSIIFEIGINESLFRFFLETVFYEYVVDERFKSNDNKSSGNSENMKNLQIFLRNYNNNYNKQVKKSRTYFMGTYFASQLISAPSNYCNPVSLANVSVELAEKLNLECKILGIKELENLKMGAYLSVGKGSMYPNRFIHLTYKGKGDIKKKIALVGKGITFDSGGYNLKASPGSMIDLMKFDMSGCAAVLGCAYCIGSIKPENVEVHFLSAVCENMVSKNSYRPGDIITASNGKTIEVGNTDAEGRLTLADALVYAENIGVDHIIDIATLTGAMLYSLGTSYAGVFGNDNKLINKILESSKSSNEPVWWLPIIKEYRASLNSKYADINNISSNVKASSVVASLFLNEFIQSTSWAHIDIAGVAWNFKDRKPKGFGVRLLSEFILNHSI

## CC(C)(C)CC(=O)NC(C(=O)NO)c1ccc(-c2cc(F)c(F)c(F)c2)cc1 (stereo not drawn) [MMV1557817, N-(2-(hydroxyamino)−2-oxo-1-(3′,4′,5′-trifluoro-[1,1′-biphenyl]-4-yl)ethyl)-3,3-dimethylbutanamide]
[1]; pH 2.0 (0.01 M HCl)
  solubility kinetic: 12.5 to 25 µg/mL (≈ 31.7 to 63.4 µM)
[1]; pH 6.5 phosphate buffer
  solubility kinetic: 12.5 to 25 µg/mL (≈ 31.7 to 63.4 µM)
[2]
  off-target inhibition: limited off-target inhibitory affects
P. berghei ANKA
  parasite reduction compared with vehicle control: 95.4%
MMP2, 7, 8, 9, and 13
  off-target inhibition: limited off-target inhibitory affects
[3]; male, Sprague-Dawley, rat plasma
  fraction unbound at 4.2 h: 0.022
[3]; mouse plasma
  fraction unbound at 4.2 h: 0.023
[4]; Sprague-Dawley (rat plasma), human, summary in text over the plasma species tested, read-out: bound to plasma proteins
  fraction unbound at 4.2 h: 0.01 to 0.02
[4]; human plasma, read-out: Plasma protein binding (converted)
  fraction unbound at 4.2 h: 0.012
Pb-M17
  Ki: 130 ± 7 nM
[5]; ratio MMV1557817:artemisinin 1:4
  MMV1557817 mean FIC ± SEM: 0.87 ± 0.08
[5]; ratio MMV1557817:artemisinin 2:3
  MMV1557817 mean FIC ± SEM: 1.13 ± 0.19
[5]; ratio MMV1557817:artemisinin 3:2
  MMV1557817 mean FIC ± SEM: 1.10 ± 0.20
[5]; ratio MMV1557817:artemisinin 4:1
  MMV1557817 mean FIC ± SEM: 1.05 ± 0.18
[5]; ratio MMV1557817:artemisinin 5:0
  MMV1557817 mean FIC ± SEM: 1.00 ± 0.19
[6]
  AUC(0-inf): 15.2 µM·h
  AUC(0-t): 14.9 µM·h
  Cmax: 5.2 µM
  Tmax: 0.5 h
  half-life: 4.3 h
Cam3.1 (MRA1240)
  EC50: 23 nM
TM90C2B
  EC50: 21 nM
Dd2
  EC50: 23 nM
NF54; NF54, read-out: unbound EC50
  EC50: 3.4 nM
NF54; NF54, sensitive strain, read-out: EC50 nM (mean)
  EC50: 22 nM
7G8
  EC50: 28 nM
K1
  EC50: 26 nM
